Results: BindingDB's records for doi:10.1016/s0960-894x(02)00790-4 (British Biotech Pharmaceuticals, 2002)
Counter-ions that a name gives are not always drawn.

These compounds were tested against Peptide deformylase (Escherichia coli) (UniProt P0A6K3) (assay: Compound was evaluated for inhibition of peptide deformylase, PDF.Ni of Escherichia coli).
Sequence of Peptide deformylase (Escherichia coli) (P0A6K3 whole entry, looked up): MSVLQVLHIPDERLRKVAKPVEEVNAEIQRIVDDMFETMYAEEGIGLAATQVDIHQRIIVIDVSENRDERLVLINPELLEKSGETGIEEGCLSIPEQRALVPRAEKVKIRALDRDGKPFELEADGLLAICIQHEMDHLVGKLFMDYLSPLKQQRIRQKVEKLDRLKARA

**Q.** Which Ki does the source give for `CCCC[C@H](CS)C(=O)N[C@@H](CCCCN)C(=O)Nc1ccc([N+](=O)[O-])cc1` [(S)-2-Mercaptomethyl-hexanoic acid [(S)-5-amino-1-(4-nitro-phenylcarbamoyl)-pentyl]-amide] here?
**A.** 19 nM

Target: Peptide deformylase (Escherichia coli) (UniProt P0A6K3)
Test: as above
Remark: another data set of the same source

**Q.** With `CCCC[C@H](CC(=O)NN)C(=O)N[C@H](C(=O)N(C)C)C(C)(C)C` [(R)-2-Hydrazinocarbonylmethyl-hexanoic acid ((S)-1-dimethylcarbamoyl-2,2-dimethyl-propyl)-amide] as the compound, how does the IC50 read?
**A.** 200 nM

**Q.** How did the IC50 turn out when `CCCC[C@H](NCC(=O)O)C(=O)N[C@H](C(=O)N(C)C)C(C)(C)C` [[(S)-1-((S)-1-Dimethylcarbamoyl-2,2-dimethyl-propylcarbamoyl)-pentylamino]-acetic acid] was run?
**A.** > 1000 nM

**Q.** `CCCCC(C[PH](=O)O)C(=O)N[C@H](C(=O)N(C)C)C(C)(C)C` (stereo partly drawn) [[2-((S)-1-Dimethylcarbamoyl-2,2-dimethyl-propylcarbamoyl)-hexyl]-phosphinic acid] was tested. Which IC50 did it give?
**A.** > 1000 nM

**Q.** Which IC50 does the source give for `CCCC[C@H](CN(O)C(N)=O)C(=O)N[C@H](C(=O)N(C)C)C(C)(C)C` [(2R)-2-{[(aminocarbonyl)(hydroxy)amino]methyl}-N-{(1S)-1-[(dimethylamino)carbonyl]-(2,2-dimethyl)-propyl}hexanamide] here?
**A.** > 1000 nM

**Q.** For `CCCCC(CP(=O)(O)O)C(=O)N[C@H](C(=O)N(C)C)C(C)(C)C` (stereo partly drawn) [[2-((S)-1-Dimethylcarbamoyl-2,2-dimethyl-propylcarbamoyl)-hexyl]-phosphonic acid], which IC50 is on record?
**A.** > 1000 nM

**Q.** `CCCCC(CC(=N)NO)C(=O)N[C@H](C(=O)N(C)C)C(C)(C)C` (stereo partly drawn) [(R)-2-(N-Hydroxycarbamimidoylmethyl)-hexanoic acid ((S)-1-dimethylcarbamoyl-2,2-dimethyl-propyl)-amide] was tested. Which IC50 did it give?
**A.** > 1000 nM

**Q.** How did the IC50 turn out when `CCCC[C@H](CNC=O)C(=O)N[C@H](C(=O)N(C)C)C(C)(C)C` [(R)-2-Formylaminomethyl-hexanoic acid ((S)-1-dimethylcarbamoyl-2,2-dimethyl-propyl)-amide] was run?
**A.** > 1000 nM

**Q.** How did the IC50 turn out when `CCCC[C@H](CC(=O)NO)C(=O)N[C@H](C(=O)N(C)C)C(C)(C)C` [(R)-2-Butyl-N*1*-((S)-1-dimethylcarbamoyl-2,2-dimethyl-propyl)-N*4*-hydroxy-succinamide] was run?
**A.** 1 nM

Target: Peptide deformylase (Escherichia coli) (UniProt P0A6K3)
Test: as above
Remark: another data set of the same source

**Q.** How did the Ki turn out when `CCCCC(CS)C(=O)NC(CCCNC(=N)N)C(=O)OC` (stereo not given) [5-Guanidino-2-(2-mercaptomethyl-hexanoylamino)-pentanoic acid methyl ester; TFA] was run?
**A.** 2500 nM
